The target of one data set is human MEK1 (Homo sapiens, UniProt Q02750). Nature of the data set: Inhibition of human MEK1 kinase activity, TR-FRET assay. In kind it is biochemical. The note with it: 100 nM MEK1, 15 μM ATP, 300 nM ERK2, two hours; read-out: Inhibition of MEK, Activity (IC50). The protocol: The activity of the compounds of the present invitation may be determined by the following procedure: Inhibition of human MEK1 kinase activity was monitored with a homogenous, fluorescence based assay. The assay uses time resolved fluorescence resonance energy transfer to probe for phosphorylation of ERK1 by MEK1. The assay is carried out in low volume 96 well microtiterplates. In a total volume of 15 μl, compounds are incubated with 100 nM MEK1, 15 μM ATP, 300 nM ERK2 employing a buffer containing 20 mM TRIS/HCl, 10 mM MgCl2, 100 μM NaVO4, 1 mM DTT, and 0.005% Tween 20 (pH 7.4). After two hours, 5 nM Europium-anti-PY20 (Perkin Elmer) and 50 nM Anti-GST-Allophycocyanin (CisBio) in buffer containing 50 mM EDTA and 0.05% BSA are added and the reaction incubated for one hour in the dark. Time-resolved fluorescence is measured using a LJL-Analyst (Molecular Devices) with an excitation wavelength of 340 nm and an emission wavelength of 665 nm. The final concentration of DMSO is 2%. To assess the inhibitory potential of the compounds, IC50-values were determined.
The following compounds exemplify such activity with “+” meaning 1 μM<IC50≦10 μM and “++” IC50≦1 μM
(In general: Time-resolved FRET reads energy transfer from a long-lived donor to a nearby acceptor.)

A further data set has as its system Murine colon C26 cells. Nature of the data set: Tumor cell proliferation assay (ATP Lite), C26. The note with it: 4 days incubation. In kind it is cell-based. The protocol:
(§1) Murine colon C26, human melanoma A375 and human melanoma Mel5 cells were plated in 96 well Corning white plates (1500 cells/well for C26, and 2000 cells/well for A375, and MiaPaCa-2) and cultured overnight at 37° C. in 5% CO2. Inhibitors were serially diluted in 100% DMSO and subsequently added to cells to reach a final concentration of 0.25% DMSO. The cells were incubated for 4 days in the presence of test compounds in cell growth media (DMEM with 10% fetal bovine serum, 2 mM glutamine for C26, and MiaPaCa-2, and RPMI with 10% fetal bovine serum, 2 mM glutamine for A375). Cell proliferation was quantitated using the ATP lite cell proliferation kit (Packard). Columns 2-4 show the concentration of compounds required to induce 50% cell death (IC50 in μM) of human endometriotic cells. With “+” meaning 100 μM<IC50≦10 μM and “++” IC50≦1 μM and “n.d.” means not determined.

For data set [1], the system named is human melanoma Mel5 cells. Nature of the data set: Tumor cell proliferation assay (ATP Lite), Mel5. In kind it is cell-based. The note with it: 4 days incubation. The protocol: as §1
Data set [2] relates to human melanoma A375 cells. Kind of data set: Tumor cell proliferation assay (ATP Lite), A375. The settings on record: 4 days incubation. In kind it is cell-based. How it is done:
as §1

Data set [3] is described as follows: Microsomal stability assay, human liver microsomes. In kind it is in vitro ADME. The settings on record: pooled human liver microsomes, pH 7.4; 3 μM compound, 0.5 mg/ml human liver microsomes, 37° C., 2 mM NADPH; read-out: HLM t½. The protocol: (§2) Compounds were tested on their stability in human, rat and mouse liver microsomal preparations (HLM, RLM and MLM respectively). At a final concentration of 3 μM, compounds were incubated at 37° C. with 0.5 mg/ml human, rat or mouse liver microsomes in a buffer containing 50 mM phosphate, pH 7.4 and 2 mM NADPH. Pooled human liver microsomes or pooled male rat liver microsomes (Sprague Dawley) were obtained from NatuTec (Frankfurt, Germany). Incubations without NADPH served as negative controls. Reactions were stopped after 0, 15, 30, 45 or 60 min by the addition of acetonitrile and microsomes were pelleted by centrifugation (10 min at 6200×g). Supernatants were analyzed by HPLC regarding the concentration of mother compound. Finally, the half-life of compounds in the regarding microsomal preparation was calculated.

The nature of data set [4]: Microsomal stability assay, rat liver microsomes. In kind it is in vitro ADME. The settings on record: male, Sprague Dawley, pooled rat liver microsomes, pH 7.4; 3 μM compound, 0.5 mg/ml rat liver microsomes, 37° C., 2 mM NADPH; read-out: RLM t½. How it is done: as §2
The test system of the next data set is Caco-2 cells. Kind of data set: Caco-2 permeability assay. In kind it is in vitro ADME. The settings on record: 10 μM, pH 7.4, 120 minutes. How it is done: Caco-2 cells obtained from the ATCC at passage number 27 are used. Cells (passage number 40-60) were seeded on to Millipore Multiscreen Caco-2 plates or Falcon HTS inserts at 1×10^5 cells/cm2. Cells were cultured for 20 days in DMEM and media was changed every two or three days. On day 20 the permeability study was performed.
Permeability was studied by applying compound to the apical surface of cell monolayers and measuring compound permeation into the basolateral compartment. The experiment was also performed in the reverse direction (B-A) to investigate active transport. […]
HBSS was then removed from the apical compartment and replaced with test compound dosing solutions. […] Test compound permeability was assessed in duplicate. […]
The integrity of the monolayers throughout the experiment is checked by monitoring lucifer yellow permeation using fluorimetric analysis. […] Test and control compounds were quantified by LC-MS/MS cassette analysis using a 5-point calibration with appropriate dilution of the samples. […]
The permeability coefficient for each compound (Papp) was calculated from the following equation: Papp=[dQ/dt]/[C0×A] […]
Wherein “+” means a caco A-B and caco B-A value of 1-10 and “++” means a caco A-B and caco B-A value of 11-100 and “n.d.” means not determined.
(Passage across Caco-2 layers is used to estimate intestinal permeability.)

The next data set concerns Tumors. The settings on record: patients; cited from earlier work.
For data set [5] the following is noted: in vivo; cited from earlier work.

Where only a bound is given, the exact number is not on record here.

Sequence of human MEK1 (Q02750 whole entry): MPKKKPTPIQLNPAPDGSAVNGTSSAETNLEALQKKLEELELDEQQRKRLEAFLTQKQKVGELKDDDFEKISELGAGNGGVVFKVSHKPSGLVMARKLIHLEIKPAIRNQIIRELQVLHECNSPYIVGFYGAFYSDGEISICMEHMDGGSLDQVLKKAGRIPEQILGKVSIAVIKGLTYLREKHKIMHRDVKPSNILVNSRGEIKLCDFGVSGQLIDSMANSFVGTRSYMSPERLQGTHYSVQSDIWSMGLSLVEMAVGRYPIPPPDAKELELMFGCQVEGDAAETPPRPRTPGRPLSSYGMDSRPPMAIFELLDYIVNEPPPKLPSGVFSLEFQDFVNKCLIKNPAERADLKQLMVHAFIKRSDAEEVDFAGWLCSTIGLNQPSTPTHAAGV

For `Cc1cc(Br)ccc1Nc1cc2nnc(C)n2cc1C(=O)O` [Compound 2a, 7-[(4-Bromo-2-methylphenyl)amino]-3-methyl[1,2,4]triazolo[4,3-a]pyridine-6-carboxylic acid], the IC50 at human MEK1 fell in the range of 1000 to 10000 nM. Moreover, the “C26 cells IC50” value in the data set with Murine colon C26 cells is given as “+ (100 μM<IC50≦10 μM)”. Moreover, the “Mel5 cells IC50” value in data set [1] is given as “+ (100 μM<IC50≦10 μM)”. Also, the “A375 cells IC50” value in [2] was “+ (100 μM<IC50≦10 μM)”.
In the case of `Cc1cc(Br)ccc1Nc1cc2nnc(C)n2cc1C(=O)NO` [Compound 3a, 7-[(4-Bromo-2-methylphenyl)amino]-N-hydroxy-3-methyl[1,2Z4]triazolo[4,3-a]pyridine-6-carboxamide], on human MEK1, the IC50 was at most 1000 nM. Besides, the “C26 cells IC50” value in the data set with Murine colon C26 cells was “+ (100 μM<IC50≦10 μM)”. Besides, in data set [1], the “Mel5 cells IC50” value is listed as “+ (100 μM<IC50≦10 μM)”. In [2], the “A375 cells IC50” value was “+ (100 μM<IC50≦10 μM)”.
As for `Cc1cc(Br)ccc1Nc1cc2nnc(C)n2cc1C(=O)NOC[C@@H](O)CO` [Compound 3b, 7-[(4-Bromo-2-methylphenyl)amino]-N-([(2S)-2,3-dihydroxypropyl]oxy)-3-methyl[1,2,4]triazolo[4,3-a]pyridine-6-carboxamide], the IC50 at human MEK1 lay within 1000 to 10000 nM. Moreover, in the data set with Murine colon C26 cells, the “C26 cells IC50” value is “+ (100 μM<IC50≦10 μM)”. In [1], the “Mel5 cells IC50” value is on record as “+ (100 μM<IC50≦10 μM)”. Moreover, the “A375 cells IC50” value in data set [2] is “+ (100 μM<IC50≦10 μM)”. The half-life at 3 μM in data set [3] and in [4] was above 120 min each time. The “Caco A-B” value with Caco-2 cells (apical to basolateral) was “+ (a caco A-B and caco B-A value of 1-10)”. Moreover, in the data set on Caco-2 cells (basolateral to apical), the “Caco B-A” value was “+ (a caco A-B and caco B-A value of 1-10)”.
As for `Cc1cc(I)ccc1Nc1cc2nnc(C)n2cc1C(=O)NOC[C@H](O)CO` [Compound 3c, 7-[(4-Iodo-2-methylphenyl)amino]-N-([(2R)-2,3-dihydroxypropyl]oxy)-3-methyl[1,2,4]triazolo[4,3-a]pyridine-6-carboxamide], at human MEK1, the IC50 is at most 1000 nM.
On to `O=C(NOCC1CC1)c1ccc(F)c(F)c1Nc1ccc(I)cc1Cl` [PD-184352], for which, in the data set with Tumors, the “efficacy in clinical phase II trials” value is given as “lacking efficacy”. Besides, the bioavailability result in data set [5] is “low bioavailability”.

Usually IC50 stands for the concentration needed to halve the response being measured.

The record behind these values is US20070299103A1, “[1,2,4]Triazolo[4,3-A]Pyridine Derivatives for the Treatment of Hyperproliferative Diseases” (priority 2004, published 2007).
